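Protocol summary: plate cells (96-well), add compound at 5 concentrations, incubate 48 h, interpolate endpoints linearly. Here, GI50 denotes the concentration required for 50% inhibition of growth.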 Calls of active or inactive are those of the source. Cut-off read from the data, not from the text of the source: active = GI50 up to about 1.1 µM and inactive = higher.
Key:
Assay in all cases: NCI anticancer screen, dose series, 48 h
[1] = system: A498
[2] = system: A549
[3] = system: CAKI-1
[4] = system: COLO 205
[5] = system: DU-145
[6] = system: EKVX
[7] = system: HCC 2998
[8] = system: HT-29
[9] = system: LOX IMVI
[10] = system: MOLT-4
[11] = system: Malme-3M
[12] = system: NCI-H226
[13] = system: OVCAR-4
[14] = system: RXF 393
[15] = system: SF-295
[16] = system: SK-MEL-28
[17] = system: SNB-19
[18] = system: SR
[19] = system: HL-60
[20] = system: NCI-H23

| Structure (SMILES) | GI50 [1] | GI50 [2] | GI50 [3] | GI50 [4] | GI50 [5] | GI50 [6] | GI50 [7] | GI50 [8] | GI50 [9] | GI50 [10] | GI50 [11] | GI50 [12] | GI50 [13] | GI50 [14] | GI50 [15] | GI50 [16] | GI50 [17] | GI50 [18] | GI50 [19] | GI50 [20] |
| --- | --- | --- | --- | --- | --- | --- | --- | --- | --- | --- | --- | --- | --- | --- | --- | --- | --- | --- | --- | --- |
| CCc1n[nH]c(=O)n1-n1c(C)ccc1C | > 100 µM (inactive) | > 100 µM (inactive) | > 100 µM (inactive) | > 100 µM (inactive) | > 100 µM (inactive) | > 100 µM (inactive) | > 100 µM (inactive) | > 100 µM (inactive) | > 100 µM (inactive) | > 100 µM (inactive) | > 100 µM (inactive) | > 100 µM (inactive) | > 100 µM (inactive) | > 100 µM (inactive) | > 100 µM (inactive) | > 100 µM (inactive) | > 100 µM (inactive) | > 100 µM (inactive) |  |  |
| O=C(Nc1cccc(C(=O)NCCCO)c1)/C(=C/c1ccccc1)NC(=O)c1ccccc1 | > 100 µM (inactive) | > 100 µM (inactive) | > 100 µM (inactive) | > 100 µM (inactive) | > 100 µM (inactive) | > 100 µM (inactive) | > 100 µM (inactive) | > 100 µM (inactive) | > 100 µM (inactive) | 84.1 µM (inactive) | > 100 µM (inactive) | > 100 µM (inactive) | > 100 µM (inactive) | > 100 µM (inactive) | > 100 µM (inactive) | > 100 µM (inactive) | > 100 µM (inactive) |  | > 100 µM (inactive) | > 100 µM (inactive) |
| NC1=Nc2ccccc2Sc2nc3ccccc3n21 |  | 26.7 µM (inactive) |  | 7.8 µM (inactive) | 39.6 µM (inactive) |  |  | 9.12 µM (inactive) | 18.9 µM (inactive) | 4.54 µM (inactive) | > 100 µM (inactive) | 10.4 µM (inactive) | 7.85 µM (inactive) | 19.4 µM (inactive) | 43.3 µM (inactive) |  | 50.1 µM (inactive) | 4.49 µM (inactive) | 2.4 µM (inactive) | 25.5 µM (inactive) |
| C=CS(=O)(=O)CCN1CC1 |  | > 10 µM (inactive) | > 10 µM (inactive) | > 10 µM (inactive) | > 10 µM (inactive) |  | > 10 µM (inactive) | > 10 µM (inactive) | > 10 µM (inactive) | > 10 µM (inactive) | > 10 µM (inactive) |  | > 10 µM (inactive) |  | > 10 µM (inactive) | > 10 µM (inactive) |  | > 10 µM (inactive) | > 10 µM (inactive) | > 10 µM (inactive) |
| OC(c1ccc(C(F)(F)F)cc1)C(F)(F)c1nc2ccccc2o1 (configuration not stated) |  |  | > 100 µM (inactive) | > 100 µM (inactive) | > 100 µM (inactive) | > 100 µM (inactive) | > 100 µM (inactive) | > 100 µM (inactive) | > 100 µM (inactive) | > 100 µM (inactive) |  | > 100 µM (inactive) | > 100 µM (inactive) | > 100 µM (inactive) | > 100 µM (inactive) | > 100 µM (inactive) | > 100 µM (inactive) | > 100 µM (inactive) | > 100 µM (inactive) | > 100 µM (inactive) |
| CCOc1c(/N=N/c2ccccc2Cl)c(-c2ccccc2)nn1C(=S)S |  | 33.2 µM (inactive) | 18.7 µM (inactive) | 21.4 µM (inactive) | > 100 µM (inactive) | 30.9 µM (inactive) |  | 25.2 µM (inactive) | 19.9 µM (inactive) | 23.9 µM (inactive) | 37.2 µM (inactive) | 20.8 µM (inactive) | 48.4 µM (inactive) | 39.9 µM (inactive) | 33.6 µM (inactive) | > 100 µM (inactive) | > 100 µM (inactive) | 26.5 µM (inactive) | 33.6 µM (inactive) | 30.3 µM (inactive) |
| COC(=O)Nc1nc2cc(NS(=O)(=O)c3ccc(Cl)cc3)ccc2[nH]1 | 3.05 µM (inactive) | 15.9 µM (inactive) | 3.78 µM (inactive) | 9.1 µM (inactive) | 20.4 µM (inactive) | 5.78 µM (inactive) |  | 4.26 µM (inactive) | 4.44 µM (inactive) | 4.53 µM (inactive) | 13.1 µM (inactive) | 10.6 µM (inactive) | 13 µM (inactive) | 7.23 µM (inactive) | 4.45 µM (inactive) | 6.79 µM (inactive) | 4.33 µM (inactive) |  | 4.15 µM (inactive) | 9.93 µM (inactive) |
| NC(Cc1ccccc1)c1nccs1 (configuration not stated) | > 100 µM (inactive) | > 100 µM (inactive) | > 100 µM (inactive) | > 100 µM (inactive) | > 100 µM (inactive) | > 100 µM (inactive) | > 100 µM (inactive) | > 100 µM (inactive) | > 100 µM (inactive) | > 100 µM (inactive) | > 100 µM (inactive) | > 100 µM (inactive) | > 100 µM (inactive) |  | > 100 µM (inactive) | > 100 µM (inactive) | > 100 µM (inactive) | > 100 µM (inactive) |  | > 100 µM (inactive) |
| CCCCCCCCCCCCCCCCCCNc1ccn(C2OC(COP(=O)(O)OCC3OC(n4cc(C)c(=O)[nH]c4=O)CC3N=[N+]=[N-])C(O)C2O)c(=O)n1 (configuration not stated) |  | 52 µM (inactive) | 22.4 µM (inactive) | 14.5 µM (inactive) | 95.5 µM (inactive) | 26.3 µM (inactive) | 15.1 µM (inactive) | 19.2 µM (inactive) | 16.4 µM (inactive) | 16.4 µM (inactive) | 16.9 µM (inactive) | 22.8 µM (inactive) | 25.7 µM (inactive) |  | 18.3 µM (inactive) | 18.6 µM (inactive) | 19.2 µM (inactive) | 18.4 µM (inactive) |  | 19.5 µM (inactive) |
| O=C(O)c1cc(CCc2ccc(O)c(O)c2)ccc1O | > 100 µM (inactive) | > 100 µM (inactive) | > 100 µM (inactive) | > 100 µM (inactive) | > 100 µM (inactive) |  | > 100 µM (inactive) | > 100 µM (inactive) |  | > 100 µM (inactive) | > 100 µM (inactive) | > 100 µM (inactive) |  |  | > 100 µM (inactive) |  | > 100 µM (inactive) | 24.4 µM (inactive) | 23.2 µM (inactive) | > 100 µM (inactive) |
| Cc1ccc(S(=O)(=O)n2cncc2CO)cc1 |  | > 100 µM (inactive) | > 100 µM (inactive) | > 100 µM (inactive) | > 100 µM (inactive) | > 100 µM (inactive) | > 100 µM (inactive) | > 100 µM (inactive) | > 100 µM (inactive) | > 100 µM (inactive) | > 100 µM (inactive) | > 100 µM (inactive) | > 100 µM (inactive) | > 100 µM (inactive) | > 100 µM (inactive) | > 100 µM (inactive) | > 100 µM (inactive) | > 100 µM (inactive) | > 100 µM (inactive) | > 100 µM (inactive) |
| Nc1ncc2c(n1)-c1ccccc1OC2N1CCCC1 (configuration not stated) |  | > 100 µM (inactive) | > 100 µM (inactive) | > 100 µM (inactive) | > 100 µM (inactive) | 41.5 µM (inactive) |  | > 100 µM (inactive) | > 100 µM (inactive) | > 100 µM (inactive) | > 100 µM (inactive) | > 100 µM (inactive) | > 100 µM (inactive) | 94.8 µM (inactive) | > 100 µM (inactive) | > 100 µM (inactive) | > 100 µM (inactive) | > 100 µM (inactive) | 1.9 µM (inactive) | > 100 µM (inactive) |
| S=C(Nc1ccc(Br)cn1)NC12CC3CC(CC(C3)C1)C2 | 33 µM (inactive) | 16.2 µM (inactive) | 35.9 µM (inactive) | 62.2 µM (inactive) | 41.2 µM (inactive) | 18.5 µM (inactive) | 19.4 µM (inactive) |  |  | 25.8 µM (inactive) | 21.7 µM (inactive) | 20.5 µM (inactive) | 17.1 µM (inactive) | 15.2 µM (inactive) | 17 µM (inactive) | 39 µM (inactive) | 11 µM (inactive) | 36.1 µM (inactive) |  | 15.3 µM (inactive) |
| O=C(c1ccco1)C1CC(c2ccc3ccccc3c2O)=NN1c1ccc([N+](=O)[O-])cc1[N+](=O)[O-] (configuration not stated) | 23.7 µM (inactive) | 22.3 µM (inactive) | 33.5 µM (inactive) | 16.3 µM (inactive) | 37.6 µM (inactive) |  | 27.7 µM (inactive) | 13.7 µM (inactive) |  | 1.71 µM (inactive) | 37 µM (inactive) | 20.6 µM (inactive) | 15.6 µM (inactive) | 29.9 µM (inactive) | 18.1 µM (inactive) | 40.6 µM (inactive) |  | 1.01 µM (active) |  | 22.7 µM (inactive) |
| NC1CCCCC1.O=P(O)(O)C(O)/C=C/c1ccccc1 (configuration not stated) | > 100 µM (inactive) | > 100 µM (inactive) | > 100 µM (inactive) | > 100 µM (inactive) | > 100 µM (inactive) | > 100 µM (inactive) | > 100 µM (inactive) | > 100 µM (inactive) | > 100 µM (inactive) | > 100 µM (inactive) | > 100 µM (inactive) | > 100 µM (inactive) | > 100 µM (inactive) | > 100 µM (inactive) | > 100 µM (inactive) | > 100 µM (inactive) | > 100 µM (inactive) |  | > 100 µM (inactive) | > 100 µM (inactive) |
| CC(=O)CC1=C(OC(C)C)C2(OCCO2)C1O (configuration not stated) | > 100 µM (inactive) | > 100 µM (inactive) | > 100 µM (inactive) | > 100 µM (inactive) | > 100 µM (inactive) | > 100 µM (inactive) |  | > 100 µM (inactive) | > 100 µM (inactive) | > 100 µM (inactive) | > 100 µM (inactive) | > 100 µM (inactive) | > 100 µM (inactive) | > 100 µM (inactive) | > 100 µM (inactive) | > 100 µM (inactive) | > 100 µM (inactive) |  | > 100 µM (inactive) | > 100 µM (inactive) |
